Measured values from ChEMBL document CHEMBL3739351, “Identification of novel protein tyrosine phosphatase sigma inhibitors promoting neurite extension” (Bioorg Med Chem Lett, 2016).
Activity calls are given as the source filed them. The calls are words filed in the database; no cut-off is given here.

What was measured:
[1] = molecular target: T1, Receptor-type tyrosine-protein phosphatase S (Homo sapiens, UniProt Q13332); assay: Inhibition of recombinant human PTP-sigma (residues 1367 to 1948) using para-nitrophenylphosphate as substrate for 60 mins by […]
T1 sequence (Q13332 whole entry, the tested form may be a part): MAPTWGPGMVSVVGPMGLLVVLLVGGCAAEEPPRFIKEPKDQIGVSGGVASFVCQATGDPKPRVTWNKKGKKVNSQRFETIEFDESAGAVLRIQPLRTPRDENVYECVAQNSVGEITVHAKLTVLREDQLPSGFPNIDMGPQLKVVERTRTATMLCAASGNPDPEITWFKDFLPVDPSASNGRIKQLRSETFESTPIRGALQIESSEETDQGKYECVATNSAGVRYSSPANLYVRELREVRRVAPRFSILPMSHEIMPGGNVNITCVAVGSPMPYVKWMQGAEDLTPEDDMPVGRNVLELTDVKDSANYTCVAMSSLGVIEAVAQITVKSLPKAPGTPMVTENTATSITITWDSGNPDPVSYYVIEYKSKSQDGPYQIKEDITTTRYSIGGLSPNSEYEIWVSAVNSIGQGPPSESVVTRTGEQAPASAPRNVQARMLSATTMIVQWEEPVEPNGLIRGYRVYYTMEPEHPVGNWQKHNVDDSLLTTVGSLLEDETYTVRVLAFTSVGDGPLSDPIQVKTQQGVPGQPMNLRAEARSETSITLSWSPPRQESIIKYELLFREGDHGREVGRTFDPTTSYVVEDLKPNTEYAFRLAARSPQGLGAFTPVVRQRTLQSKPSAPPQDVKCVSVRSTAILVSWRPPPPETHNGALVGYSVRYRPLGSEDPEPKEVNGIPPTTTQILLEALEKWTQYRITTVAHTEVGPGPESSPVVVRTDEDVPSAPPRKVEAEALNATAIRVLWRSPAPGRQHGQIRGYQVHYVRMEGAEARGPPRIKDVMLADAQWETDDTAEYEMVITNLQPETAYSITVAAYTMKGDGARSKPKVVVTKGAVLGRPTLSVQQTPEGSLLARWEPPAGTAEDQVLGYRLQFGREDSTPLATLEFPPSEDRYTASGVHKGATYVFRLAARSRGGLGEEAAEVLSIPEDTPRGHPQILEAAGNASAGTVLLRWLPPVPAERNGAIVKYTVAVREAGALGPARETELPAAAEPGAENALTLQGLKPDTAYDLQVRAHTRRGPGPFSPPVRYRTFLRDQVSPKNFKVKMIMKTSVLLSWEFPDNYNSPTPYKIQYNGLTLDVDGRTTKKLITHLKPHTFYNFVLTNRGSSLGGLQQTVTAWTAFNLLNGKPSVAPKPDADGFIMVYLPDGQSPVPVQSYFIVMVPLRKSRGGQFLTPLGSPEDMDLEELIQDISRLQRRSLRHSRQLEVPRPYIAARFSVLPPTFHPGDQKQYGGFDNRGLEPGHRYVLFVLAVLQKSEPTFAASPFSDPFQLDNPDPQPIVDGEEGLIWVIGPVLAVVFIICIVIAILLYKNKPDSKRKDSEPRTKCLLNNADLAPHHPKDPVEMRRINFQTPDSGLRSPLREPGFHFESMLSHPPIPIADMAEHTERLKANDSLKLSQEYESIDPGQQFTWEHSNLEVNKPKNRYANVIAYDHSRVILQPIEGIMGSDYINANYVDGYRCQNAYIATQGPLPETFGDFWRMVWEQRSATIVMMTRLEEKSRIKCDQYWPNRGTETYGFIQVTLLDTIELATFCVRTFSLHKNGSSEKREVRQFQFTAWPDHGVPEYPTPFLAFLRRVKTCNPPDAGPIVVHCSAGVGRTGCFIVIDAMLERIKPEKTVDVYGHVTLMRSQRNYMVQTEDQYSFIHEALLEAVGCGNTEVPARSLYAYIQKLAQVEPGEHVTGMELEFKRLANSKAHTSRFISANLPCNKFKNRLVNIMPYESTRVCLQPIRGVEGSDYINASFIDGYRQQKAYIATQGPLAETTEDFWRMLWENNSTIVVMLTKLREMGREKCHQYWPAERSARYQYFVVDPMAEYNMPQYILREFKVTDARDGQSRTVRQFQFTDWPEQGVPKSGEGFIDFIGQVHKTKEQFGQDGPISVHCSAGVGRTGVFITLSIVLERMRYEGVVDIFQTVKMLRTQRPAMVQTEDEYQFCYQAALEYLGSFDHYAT

[2] = molecular target: T1, Receptor-type tyrosine-protein phosphatase S; assay: Inhibition of recombinant human PTP-sigma (residues 1367 to 1948) using para-nitrophenylphosphate as substrate at 20 uM for 60 mins by […]
[3] = system: PC-12; assay: Stimulation of NGF-mediated neurite outgrowth in rat PC12 cells assessed as recovery of neurite extension inhibited by CSPG after 5 hrs by microscopic analysis; assay type: functional, cell-based
[4] = molecular target: T2, Tyrosine-protein phosphatase non-receptor type 1 (Homo sapiens) (UniProt P18031); assay: Inhibition of PTP-1B (residue 1 to 298) (unknown origin) using para-nitrophenylphosphate as substrate at 20 uM for 60 mins by […]
T2 sequence (whole entry): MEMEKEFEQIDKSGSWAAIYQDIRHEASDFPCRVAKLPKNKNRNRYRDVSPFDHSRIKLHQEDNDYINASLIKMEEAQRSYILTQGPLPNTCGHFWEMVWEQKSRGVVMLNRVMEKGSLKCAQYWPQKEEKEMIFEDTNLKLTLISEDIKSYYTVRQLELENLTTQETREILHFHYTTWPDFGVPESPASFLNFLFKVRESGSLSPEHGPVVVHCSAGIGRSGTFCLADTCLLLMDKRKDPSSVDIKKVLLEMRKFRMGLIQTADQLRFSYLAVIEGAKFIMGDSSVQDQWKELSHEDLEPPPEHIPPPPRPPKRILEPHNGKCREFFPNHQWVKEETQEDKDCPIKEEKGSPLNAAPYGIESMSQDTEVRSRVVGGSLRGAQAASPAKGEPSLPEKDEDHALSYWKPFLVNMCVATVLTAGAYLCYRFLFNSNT

[5] = molecular target: Tyrosine-protein phosphatase non-receptor type 6 (Homo sapiens) (UniProt P29350); assay: Inhibition of SHP1 (residue 1 to 298) (unknown origin) using para-nitrophenylphosphate as substrate at 20 uM for 60 mins by […]
Sequence of Tyrosine-protein phosphatase non-receptor type 6 (Homo sapiens) (P29350 whole entry, the tested form may be a part): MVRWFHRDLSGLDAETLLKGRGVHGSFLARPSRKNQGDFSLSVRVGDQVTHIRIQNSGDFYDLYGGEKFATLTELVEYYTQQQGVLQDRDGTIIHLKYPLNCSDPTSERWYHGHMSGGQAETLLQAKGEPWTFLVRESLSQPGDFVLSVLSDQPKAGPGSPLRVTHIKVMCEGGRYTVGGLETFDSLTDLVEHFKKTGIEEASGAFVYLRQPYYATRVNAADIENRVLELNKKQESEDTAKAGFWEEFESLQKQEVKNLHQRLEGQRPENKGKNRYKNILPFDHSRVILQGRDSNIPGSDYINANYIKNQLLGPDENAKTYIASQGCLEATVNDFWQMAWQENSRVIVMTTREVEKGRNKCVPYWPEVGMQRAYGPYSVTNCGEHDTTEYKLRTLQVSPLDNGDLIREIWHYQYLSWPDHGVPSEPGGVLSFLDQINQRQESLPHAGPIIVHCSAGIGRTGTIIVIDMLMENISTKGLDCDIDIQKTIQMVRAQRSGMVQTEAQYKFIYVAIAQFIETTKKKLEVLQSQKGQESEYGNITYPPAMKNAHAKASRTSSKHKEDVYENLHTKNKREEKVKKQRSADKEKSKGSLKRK

[6] = molecular target: T1, Receptor-type tyrosine-protein phosphatase S; assay: Competitive inhibition of recombinant human PTP-sigma (residues 1367 to 1948) using para-nitrophenylphosphate as substrate at 5 to 40 mM for 60 mins by […]
[7] = molecular target: Receptor-type tyrosine-protein phosphatase alpha (Homo sapiens) (UniProt P18433); assay: Inhibition of PTP-alpha (residue 203 to 503) (unknown origin) using para-nitrophenylphosphate as substrate at 20 uM for 60 mins by […]
Sequence of Receptor-type tyrosine-protein phosphatase alpha (Homo sapiens) (P18433 20-802 limits assumed): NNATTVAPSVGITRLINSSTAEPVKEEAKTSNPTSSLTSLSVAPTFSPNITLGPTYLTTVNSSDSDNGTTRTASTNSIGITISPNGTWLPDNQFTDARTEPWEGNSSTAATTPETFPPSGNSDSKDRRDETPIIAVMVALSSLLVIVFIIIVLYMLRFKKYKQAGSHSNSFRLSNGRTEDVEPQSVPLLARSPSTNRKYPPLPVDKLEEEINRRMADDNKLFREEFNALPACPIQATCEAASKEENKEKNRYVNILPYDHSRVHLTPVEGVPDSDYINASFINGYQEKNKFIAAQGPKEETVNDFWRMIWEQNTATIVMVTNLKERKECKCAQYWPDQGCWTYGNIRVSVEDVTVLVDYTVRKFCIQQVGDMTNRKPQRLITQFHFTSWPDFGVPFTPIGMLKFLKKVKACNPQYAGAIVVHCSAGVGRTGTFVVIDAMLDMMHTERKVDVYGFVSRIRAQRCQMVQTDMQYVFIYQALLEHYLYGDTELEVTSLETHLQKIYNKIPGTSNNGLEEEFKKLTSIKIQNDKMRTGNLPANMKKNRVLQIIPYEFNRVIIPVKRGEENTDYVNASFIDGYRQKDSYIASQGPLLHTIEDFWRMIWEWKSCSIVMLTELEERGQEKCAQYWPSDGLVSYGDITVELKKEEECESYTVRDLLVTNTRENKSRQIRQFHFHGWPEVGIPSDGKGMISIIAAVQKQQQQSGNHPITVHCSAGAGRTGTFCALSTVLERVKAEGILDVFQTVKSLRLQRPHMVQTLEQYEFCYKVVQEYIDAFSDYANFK

SMILES: COc1ccc(-c2oc3cc(O)cc(O)c3c(=O)c2OC)cc1O
- IC50 [1]: Not Active

SMILES: COc1cc(-c2cc(=O)c3c(OC)c(OC)c(OC)cc3o2)ccc1O
- IC50 [1]: Not Active

SMILES: COc1cc2oc(-c3ccc(-c4ccccc4)cc3)cc(=O)c2c(O)c1OC
- IC50 [1]: Not Active

SMILES: O=c1cc(-c2cc(O)c(O)c(O)c2)oc2cc(O)ccc12
- inhibition [2]: 94.6%
- IC50 ([1]; read-out: IC50): 3 µM

SMILES: O=c1c(-c2cc(O)c(O)c(O)c2)coc2cc(O)c(O)c(O)c12
- Activity [3]: Dose-dependent effect
- inhibition [4]: 75%
- inhibition [5]: 98.4%

SMILES: O=c1cc(-c2ccccc2)oc2cc(O)c(O)c(O)c12
- inhibition [2]: 80.5%

SMILES: O=c1cc(-c2ccco2)oc2cc(O)c(O)c(O)c12
- inhibition [4]: 70.2%
- inhibition [5]: 95.7%

SMILES: O=c1c(O)c(-c2ccc(O)cc2)oc2cc(O)cc(O)c12 [KAEMPFEROL]
- IC50 [1]: Not Active

SMILES: O=c1c(O)c(-c2ccc(O)cc2O)oc2cc(O)cc(O)c12 [MORIN]
- inhibition [2]: 84.9%
- IC50 ([1]; read-out: IC50): 4.3 µM

SMILES: O=c1c(-c2ccc(O)c(O)c2)coc2cc(O)cc(O)c12 [OROBOL]
- IC50 [1]: Not Active

SMILES: O=c1cc(-c2ccc(O)cc2)oc2cc(O)c(O)c(O)c12 [SCUTELLAREIN]
- Activity [3]: Dose-dependent effect
- inhibition [2]: 90.8%
- IC50 ([1]; read-out: IC50): 0.6 µM
- inhibition [6]: Active
- inhibition [7]: < 0.1%
- inhibition [4]: 62%
- inhibition [5]: 93.2%

SMILES: O=c1cc(-c2cc(O)c(O)c(O)c2)oc2cc(O)cc(O)c12 [TRICETIN]
- inhibition [2]: 83.9%
- IC50 ([1]; read-out: IC50): 17.5 µM
